Measurements from US20250312309A1, “ALLYL-AND PROPARGYLAMINE-TYPE PHENE[…] T[…] TREATING MEDICAL DISORDERS” (Mind Medicine, Inc., priority 2023, published 2025).
“Also recorded” adds a separate entry of the source. Counter-ions that a name gives are not always drawn. Like-named read-outs stand apart in the source and are kept apart here.

Experiments:
[1] = target: T1, human serotonin (5-HT) transporter (hSERT) (Homo sapiens, UniProt P31645); test: Serotonin uptake transport inhibition ([3H]5-HT uptake in hSERT-transfected HEK 293 cells); format: cell-based; conditions: screening at 1 μM and 10 μM (n=3), FIG. 9
T1 construct: expressed in transfected cells; host or cells: HEK 293 cells (Invitrogen), stably transfected
T1 sequence (P31645 whole entry): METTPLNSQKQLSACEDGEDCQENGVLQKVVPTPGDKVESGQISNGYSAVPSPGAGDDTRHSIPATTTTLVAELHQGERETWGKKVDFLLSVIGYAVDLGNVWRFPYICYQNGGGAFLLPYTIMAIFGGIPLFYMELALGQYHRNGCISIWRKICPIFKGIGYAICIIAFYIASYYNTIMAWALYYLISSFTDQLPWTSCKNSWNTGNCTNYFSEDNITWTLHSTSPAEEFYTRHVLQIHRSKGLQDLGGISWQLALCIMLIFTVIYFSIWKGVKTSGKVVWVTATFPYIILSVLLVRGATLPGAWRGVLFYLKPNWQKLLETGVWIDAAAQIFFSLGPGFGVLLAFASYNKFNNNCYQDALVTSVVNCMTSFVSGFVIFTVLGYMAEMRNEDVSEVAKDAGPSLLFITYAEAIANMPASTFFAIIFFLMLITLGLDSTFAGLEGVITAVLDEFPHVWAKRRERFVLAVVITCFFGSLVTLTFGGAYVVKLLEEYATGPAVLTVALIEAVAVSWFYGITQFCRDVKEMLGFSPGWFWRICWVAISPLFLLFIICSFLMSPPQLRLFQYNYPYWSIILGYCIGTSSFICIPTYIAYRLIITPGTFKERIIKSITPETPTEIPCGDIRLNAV
Procedure: Serotonin uptake transport inhibition. […] Briefly, cells were cultured in Dulbecco's modified Eagle's medium (DMEM; Gibco, Life Technologies, Zug, Switzerland) with 10% fetal bovine serum (Gibco) and 250 mg/mL Geneticin (Gibco) to 70-90% confluence, detached, and then resuspended (3×10^6 cells/mL) in Krebs-Ringer Bicarbonate Buffer (Sigma-Aldrich, Buchs, Switzerland). The cell suspension (100 μL) was incubated with 25 μL buffer containing the test compounds, vehicle control, or 10 μM fluoxetine (SERT-specific inhibitor) for 10 minutes in a round bottom 96-well plate at room temperature by shaking at 450 rotations per minute on a rotary shaker. To initiate uptake transport, 50 μL of [^3H] […] Thereafter, 100 μL of the cell suspension was transferred into 500 μL microcentrifuge tubes that contained 50 μL of 3 M KOH and 200 μL silicon oil (1:1 mixture of silicon oil types AR 20 and AR 200; Sigma-Aldrich). The tubes were centrifuged for 3 minutes at 16,550 g to transport the cells through the silicone oil into the KOH. The tubes were frozen in liquid nitrogen and the cell pellet was then cut into 6 mL scintillation vials (PerkinElmer, Schwerzenbach, Switzerland) that contained 0.5 mL lysis buffer (0.05 M TRIS-HCl, 50 mM NaCl, 5 mM EDTA, and 1% NP-40 in water). The samples were shaken for 1 hour before the addition of 5 mL scintillation liquid (Ultimagold, Perkin Elmer). Serotonin uptake was quantified by liquid scintillation counting on a Packard Tri-Carb Liquid Scintillation Counter 1900 TR. Non-specific uptake in the presence of fluoxetine was subtracted from the total counts.

human 5-HT2A receptor = target: T2, human 5-HT2A receptor (Homo sapiens, UniProt P28223); test: 5-HT2A receptor activation assessment (IP1 accumulation, NIH/3T3 cells); format: cell-based; conditions: for 5-HT2A receptor activation, result in words: FIG. 10 / FIG. 11
T2 construct: expressed in transfected cells; host or cells: NIH/3T3 cells stably expressing the receptor
T2 sequence (P28223 whole entry): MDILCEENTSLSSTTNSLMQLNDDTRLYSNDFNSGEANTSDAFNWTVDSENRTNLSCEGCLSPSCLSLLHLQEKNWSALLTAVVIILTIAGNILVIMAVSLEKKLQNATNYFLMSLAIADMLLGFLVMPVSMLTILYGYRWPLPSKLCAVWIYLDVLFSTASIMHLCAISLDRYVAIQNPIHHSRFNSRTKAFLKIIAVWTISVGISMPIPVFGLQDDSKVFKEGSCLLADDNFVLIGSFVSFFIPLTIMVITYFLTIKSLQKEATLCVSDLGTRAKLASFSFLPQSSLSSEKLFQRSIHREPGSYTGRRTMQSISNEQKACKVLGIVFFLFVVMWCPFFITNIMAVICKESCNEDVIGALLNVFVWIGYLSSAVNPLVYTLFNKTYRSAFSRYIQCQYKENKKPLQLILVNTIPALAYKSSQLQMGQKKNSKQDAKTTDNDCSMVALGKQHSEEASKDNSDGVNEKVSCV
Procedure: 5-HT2A receptor activation assessment. Activation of the 5-HT2A receptor was assessed by measuring the accumulation of inositol monophosphate 1 (IP1) using the Cisbio IP-One Gq Kit (Cisbio Bioassays SAS, Codolet Cedex, France) according to the manufacturer's protocol. In brief, NIH/3T3 cells stably expressing the human 5-HT2A receptor were seeded at a density of 2,500 cells per well in a 384-well plate in Opti-MEM™ I medium (Gibco, ThermoFisher, Life Technologies Europe B.V., Zug, Switzerland). Then, test compounds were added, and the plate was incubated for 90 minutes at 37° C., followed by 60 minutes incubation with Anti-IP1-Cryptate and IP1-d2 at room temperature. Stimulated IP-1 formation was determined by Homogeneous Time-Resolved Fluorescence (HTRF) measurement on a BioTek Synergy H1 Multimode Reader (Agilent Technologies (Schweiz) AG, Basel, Switzerland) and EC50 values were derived from the concentration-response curves using nonlinear regression.

[2] = target: T1, human serotonin (5-HT) transporter (hSERT); conditions: read-out: IC50, SERT inhibition (Simmler et al., 2013); literature value in this assay; cited from earlier work
[3] = humans; Trachsel et al., 2013; cited from earlier work
[4] = NIH/3T3 cells expressing human 5-HT2A, FIG. 11, read-out: EC50, 5-HT2A receptor activation (IP1 formation)
[5] = values for hydrochloride salts, read-out: IC50 values at the 5-HT2A receptor

## C#CC(N)Cc1ccc2c(c1)OCO2 (stereo not shown) [DDH-BDB, 1-(1,3-Benzodioxol-5-yl)but-3-yn-2-amine hydrochloride]
[1]
  IC50: > 10000 nM

## C=C(c1ccc2c(c1)OCO2)C(C)NC.Cl (stereo not shown) [BME-MDMA, 2-(1,3-Benzodioxol-5-yl)-3-(methylamino) butene hydrochloride]
Human 5-HT2A receptor
  5-HT2A receptor activation, result in words: weaker activation efficacy

## C=CC(Cc1ccc2c(c1)OCO2)NC.Cl (stereo not shown) [DH-MBDB, N-Methyl-1-(1,3-benzodioxol-5-yl) but-3-en-2-amine hydrochloride]
[1]
  IC50: 1000 to 10000 nM
Human 5-HT2A receptor
  5-HT2A receptor activation, result in words: weaker activation efficacy

## 1-(Indol-3-yl) but-3-en-2-amine hemifumarate [DH-α-ET]
[1]; read-out: IC50, inhibition of 5-HT uptake (SERT)
  IC50: < 1000 nM
[1]
  IC50, inhibition of 5-HT uptake (SERT): sub-micromolar
Human 5-HT2A receptor; at 10 μM
  efficacy at the 5-HT2A receptor, percentage of the maximal 5-HT response: ~50%

## C#CC(N)Cc1cc(OC)c(Br)cc1OC.Cl (stereo not shown) [DDH-4C-B, 1-(4-Bromo-2,5-dimethoxyphenyl)but-3-yn-2-amine hydrochloride]
Human 5-HT2A receptor
  5-HT2A receptor activation, result in words: fully activated
Human 5-HT2A receptor; [4]
  EC50: 40.7 nM
Human 5-HT2A receptor; [5]
  EC50: 40.7 nM

## C#CC(Cc1ccc2c(c1)OCO2)NC (stereo not shown) [DDH-MBDB, N-Methyl-1-(1,3-benzodioxol-5-yl)but-3-yn-2-amine hydrochloride]
[1]
  IC50: > 10000 nM

## CNC(C)Cc1ccc2c(c1)OCO2 (stereo not shown) [MDMA, 3,4-Methylenedioxymethamphetamine]
[2]
  IC50: ~1400 nM

## CCC(N)Cc1cc(OC)c(Br)cc1OC (stereo not shown) [4C-B]
[3]
  active dose range (mixed psychedelic-energizing): 50 to 80 mg

## C=CC(N)Cc1ccc2c(c1)OCO2.Cl (stereo not shown) [DH-BDB, 1-(1,3-Benzodioxol-5-yl) but-3-en-2-amine hydrochloride]
[1]
  IC50: 1000 to 10000 nM
Human 5-HT2A receptor
  5-HT2A receptor activation, result in words: weaker activation efficacy

## C=CC(N)Cc1cc(OC)c(Br)cc1OC.Cl (stereo not shown) [DH-4C-B, 1-(4-Bromo-2,5-dimethoxyphenyl)but-3-en-2-amine hydrochloride]
[1]
  IC50: > 10000 nM
Human 5-HT2A receptor; hydrochloride
  5-HT2A receptor activation, result in words: fully activated; also recorded: potent activity
Human 5-HT2A receptor; [4]
  EC50: 22.1 nM
Human 5-HT2A receptor; [5]
  EC50: 22.1 nM
